In this experiment the target is T1, human CA9 (Homo sapiens, UniProt Q16790).
T1 construct: purchased SinoBiological
In words: Intermolecular interaction against human CA9 by surface plasmon resonance (SPR). The note with it: Human CA9-Fc captured on Protein A sensor chip, Single Cycle Kinetics, KD values only in Tables 7, 8 (images). In kind it is binding. The protocol: The intermolecular interactions of the peptides against human CA9 protein were examined by surface plasmon resonance (SPR) for the various peptides or conjugates synthesized in Examples 1 and 2, according to the methods described below. Specific test methods are described below.
Protein A sensor chip (Cytiva) was inserted into BiacoreT200 (Cytiva) and primed with running buffer: 1× HBS-P+ (Cytiva), 1.0 % DMSO (Fujifilm Wako Pure Chemical Corporation), and 50 µM zinc acetate dihydrate (Hampton research), and equilibrated at a flow rate of 30 µL/min. 50 nM Human CA9-Fc (SinoBiological) diluted with running buffer was reacted at a flow rate of 5 µL/min for 60 seconds and captured into a flow cell.
A solution containing each peptide or conjugate synthesized in Example 1 or 2 and prepared at 1 mM in DMSO solution was diluted with running buffer to a final concentration of 100 nM. Then, the peptide or conjugate solutions at 25 nM and 5 nM were further prepared. Depending on the affinity of the peptide or conjugate, the solution was diluted with running buffer to a final concentration of 40 nM. […]
Using the above samples, the kinetics of each peptide or conjugate against human CA9 was obtained by SPR measurement. […] The binding of each peptide or conjugate to human CA9 was evaluated by performing least-squares curve fitting on the obtained sensorgram to calculate the KD value.
(SPR reads the build-up and loss of mass on a sensor chip optically.)

Turning to “C1Ac-da-Tbg-3Py6CON-Hgl-Meda-Ahp-PeG-S-3Py6NH2-HseMe-dk-Y-MeC [SEQ ID No. 45]”, the “activity of binding to human CA9 (CA9 binding ability)” value is on record as “possesses CA9 binding ability”.

These data come from patent EP4818191A1, “PEPTIDE AND CONJUGATE CONTAINING SAID PEPTIDE” (PeptiDream Inc., priority 2023, dated 2025).
